C[C@H]1[C@H](OC(=O)CCC(=O)O)O[C@@H]2O[C@@]3(C)CC[C@H]4[C@H](C)CC[C@@H]1[C@@]24OO3
solubility (mole fraction)
Conditions	278.15 K	283.15 K	288.15 K	293.15 K	298.15 K	303.15 K	308.15 K	313.15 K	318.15 K
in ethanol	0.00528	0.00575	0.00636	0.00709	0.00782	0.00854	0.00939	0.0102	0.0111
in isopropanol	0.00285	0.00336	0.00392	0.00461	0.00527	0.00609	0.00698	0.00796	0.00898
in methanol	0.00497	0.00538	0.00606	0.00677	0.00747	0.00817	0.00906	0.00994	0.0108
in propylene glycol	0.001	0.00123	0.00148	0.00176	0.00205	0.00237	0.00279	0.0032	0.00366
in water	9.48e-06	1.28e-05	1.66e-05	2.16e-05	2.71e-05	3.51e-05	4.44e-05	5.54e-05	6.94e-05

— BigSolDB 2.1
